Test results: US20250049757A1, “COMBINATORY THERAPY FOR CANCER USING BIPHENYL COMPOUND AND IMMUNE CHECKPOINT MOLECULE REGULATOR” (Taiho Pharmaceutical Co. Ltd., priority 2021, published 2025)

Key:
Assay type in all cases: in vivo
[1] = test system: mouse colon cancer cell line MC38; assay: Combination of Compound A and anti-mouse PD-1 antibody in MC38 transplanted wild type C57BL/6JJcl mice (Example 3); conditions: Aspin-Welch's t-test
Procedure: The MC38 cell suspension was transplanted subcutaneously at 2.0×10^6 cells/0.1 ml to the right chest of 6-week-old C57BL/6JJcl mice (CLEA Japan, Inc.).
(§1) The tumor was grown until reaching a TV of 50 to 300 mm^3 after the transplantation. Degimatic Caliper was used for tumor diameter measurement. The major diameter and the minor diameter of the tumor were measured, and TV was calculated from the following equation.
(§2) TV (mm^3)=major diameter (mm)×minor diameter (mm)×minor diameter (mm)/2
By a stratified random allocation method using TV as an index, 10 mice were allocated to each group. The day when grouping was performed was defined as Day 0.
An electronic balance for animals was used for body weight measurement. The body weight change ratio on the nth day (BWCn) was calculated from the body weight on the nth day (BWn) in accordance with the following equation.
(§3) Body weight change ratio BWCn (%)=(BWn−BW0)/BW0×100
An appropriate amount of water for injection described in the Japanese Pharmacopeia was added for adjusting hypromellose concentration to 0.5 w/v %, and the mixture was then stirred with a stirrer to completely dissolve hypromellose, to prepare a 0.5% aqueous hypromellose solution.
On the first day of administration (day 1), the diluted product was intraperitoneally administered with the dose of 0.05 mg/body of the anti-mouse PD-1 antibody.

[2] = test system: mouse colon cancer cell line MC38; assay: Antitumor effect in MC38 transplanted wild type (immune proficient) C57BL/6JJcl mice (Example 2)
Procedure: (§4) The MC38 cell suspension was transplanted subcutaneously at 2.0×10^6 cells/0.1 ml to the right chest of 6-week-old C57BL/6JJcl mice (CLEA Japan, Inc.) or CB17/Icr-Prkdc[scid]/CrlCrlj (Charles River Laboratories Japan Inc.). CB17/Icr-Prkdc[scid]/CrlCrlj mice are mice with immune deficiency due to lack of Tcells and B-cells in the peripheral blood.
as §1, §2
(§5) By a stratified random allocation method using TV as an index, ten C57BL/6JJcl mice were allocated to each group, and five CB17/Icr-Prkdc [scid]/CrlCrlj mice were allocated to each group. The day when grouping was performed was defined as Day 0. An electronic balance for animals was used for body weight measurement. The body weight change ratio on the nth day (BWCn) was calculated from the body weight on the nth day (BWn) in accordance with the following equation.
as §3
(§6) An appropriate amount of water for injection described in the Japanese Pharmacopeia was added for adjusting hypromellose concentration to 0.5 w/v %, and the mixture was then stirred with a stirrer to completely dissolve hypromellose, to prepare a 0.5% aqueous hypromellose solution. Benzoic acid salt of Compound A was ground with an agate mortar, and then suspended to a predetermined concentration with the 0.5% aqueous hypromellose solution, and ultrasonic treatment was performed to obtain a homogeneous suspension. The suspension containing Compound A was orally administered once a day for 21 consecutive days at a dose of 25 mg/kg/day. The dosage is indicated based on the free form of the Compound A.

[3] = test system: mouse colon cancer cell strain MC38; assay: Flow cytometric analysis of tumor infiltrating leucocytes in MC38 transplanted mice (Example 1); conditions: Day 7, tumor infiltrating leucocytes, Compound A 25 mg/kg/day po 6 days, Dunnett test
Procedure: The mouse colon cancer cell strain MC38 was obtained from Dr. Yoshihiro Hayakawa (University of Toyama, Toyama, Japan). The MC38 cell strain was subjected to culture in an RPMI 1640 medium containing 10% fetal bovine serum and then to subculture in an incubator at 37° C. in the presence of 5% CO2 at a frequency of once or twice a week.
The MC38 cell suspension was transplanted subcutaneously at 1.5×10^6 cells/0.1 ml to the right chest of 6-week-old C57BL/6JJcl mice (CLEA Japan, Inc.).
The tumor was grown until reaching a tumor volume (TV) of 80 to 230 mm^3 after the transplantation. Degimatic Caliper was used for tumor diameter measurement. The major diameter and the minor diameter of the tumor were measured, and TV was calculated from the following equation.
as §2
By a stratified random allocation method using TV as an index, 5 animals were allocated to each group. The day when grouping (n=5) was performed was defined as Day 0. […]
For detecting expression of immunity-related factors, flow cytometric analysis was performed for immunological monitoring. […] Thereafter, the isolated lymphocytes were stained with antibodies below, and then, analyzed using Flow Cytometer FACSVerse (BD Bioscience). […]

[4] = test system: mouse colon cancer cell line MC38; assay: Antitumor effect in MC38 transplanted immune deficient CB17/Icr-Prkdc[scid]/CrlCrlj mice (Example 2)
Procedure: as §4, §1, §2, §5, §3, §6

[5] = wild type C57BL/6JJcl mice, 25.0 mg/kg/day qd Day 1-21 po
[6] = immune deficient CB17/Icr-Prkdc[scid]/CrlCrlj mice, 25.0 mg/kg/day qd Day 1-21 po

CC(C)(O)Cc1ccc(-c2ccc(C(=O)N3CC[C@H](N)C3)cc2-c2ccc(C#N)c(F)c2)c(F)c1 [Compound A, 4-[5-[(3S)-3-aminopyrrolidine-1-carbonyl]-2-[2-fluoro-4-(2-hydroxy-2-methyl-propyl)phenyl]phenyl]-2-fluoro-benzonitrile]
antitumor effect: TV on Day 22 as compared to the control group [1]: significantly lower TV | Body weight change Day 22 Mean ± SE [2, 5]: 2.6 ± 1.2% | Tumor volume Day 22 Mean ± SE [2, 5]: 969.3 ± 114.7 mm^3 | antitumor effect: TV on Day 22 as compared to the control group ([2]; wild type mice, Aspin-Welch's t-test): significantly lower TV | ratio of gMDSC (CD45 positive, CD90.2 negative, CD11b positive, Ly6G positive cells) in leucocytes as compared to the control group [3]: significantly lower | Body weight change Day 22 Mean ± SE [4, 6]: 9.2 ± 4.2% | Tumor volume Day 22 Mean ± SE [4, 6]: 2431.6 ± 359.7 mm^3 | antitumor effect: TV on Day 22 as compared to the control group ([4]; immune deficient mice, Aspin-Welch's t-test): didn't exhibit any antitumor effect
